Biological target: T1, met (HGF receptor) in human gastric cancer cells MKN45 (Homo sapiens, UniProt P08581)
T1 construct: endogenous in cells; host or cells: MKN45 human gastric cancer cells
Assay: Inhibitory activity against met-autophosphorylation using ELISA method (2), MKN45 cells, HGF-independent
Type: cell-based
How it was run: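 Met autophosphorylation was read by sandwich ELISA: phosphotyrosine capture (PY20), anti-HGF receptor detection, peroxidase read-out at 450 nm. Lysates came from MKN45 gastric cancer cells kept in 0.1% FCS RPMI and treated 1 h at 37 °C with test compound, with no added HGF.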

T1 sequence (P08581 25-1390): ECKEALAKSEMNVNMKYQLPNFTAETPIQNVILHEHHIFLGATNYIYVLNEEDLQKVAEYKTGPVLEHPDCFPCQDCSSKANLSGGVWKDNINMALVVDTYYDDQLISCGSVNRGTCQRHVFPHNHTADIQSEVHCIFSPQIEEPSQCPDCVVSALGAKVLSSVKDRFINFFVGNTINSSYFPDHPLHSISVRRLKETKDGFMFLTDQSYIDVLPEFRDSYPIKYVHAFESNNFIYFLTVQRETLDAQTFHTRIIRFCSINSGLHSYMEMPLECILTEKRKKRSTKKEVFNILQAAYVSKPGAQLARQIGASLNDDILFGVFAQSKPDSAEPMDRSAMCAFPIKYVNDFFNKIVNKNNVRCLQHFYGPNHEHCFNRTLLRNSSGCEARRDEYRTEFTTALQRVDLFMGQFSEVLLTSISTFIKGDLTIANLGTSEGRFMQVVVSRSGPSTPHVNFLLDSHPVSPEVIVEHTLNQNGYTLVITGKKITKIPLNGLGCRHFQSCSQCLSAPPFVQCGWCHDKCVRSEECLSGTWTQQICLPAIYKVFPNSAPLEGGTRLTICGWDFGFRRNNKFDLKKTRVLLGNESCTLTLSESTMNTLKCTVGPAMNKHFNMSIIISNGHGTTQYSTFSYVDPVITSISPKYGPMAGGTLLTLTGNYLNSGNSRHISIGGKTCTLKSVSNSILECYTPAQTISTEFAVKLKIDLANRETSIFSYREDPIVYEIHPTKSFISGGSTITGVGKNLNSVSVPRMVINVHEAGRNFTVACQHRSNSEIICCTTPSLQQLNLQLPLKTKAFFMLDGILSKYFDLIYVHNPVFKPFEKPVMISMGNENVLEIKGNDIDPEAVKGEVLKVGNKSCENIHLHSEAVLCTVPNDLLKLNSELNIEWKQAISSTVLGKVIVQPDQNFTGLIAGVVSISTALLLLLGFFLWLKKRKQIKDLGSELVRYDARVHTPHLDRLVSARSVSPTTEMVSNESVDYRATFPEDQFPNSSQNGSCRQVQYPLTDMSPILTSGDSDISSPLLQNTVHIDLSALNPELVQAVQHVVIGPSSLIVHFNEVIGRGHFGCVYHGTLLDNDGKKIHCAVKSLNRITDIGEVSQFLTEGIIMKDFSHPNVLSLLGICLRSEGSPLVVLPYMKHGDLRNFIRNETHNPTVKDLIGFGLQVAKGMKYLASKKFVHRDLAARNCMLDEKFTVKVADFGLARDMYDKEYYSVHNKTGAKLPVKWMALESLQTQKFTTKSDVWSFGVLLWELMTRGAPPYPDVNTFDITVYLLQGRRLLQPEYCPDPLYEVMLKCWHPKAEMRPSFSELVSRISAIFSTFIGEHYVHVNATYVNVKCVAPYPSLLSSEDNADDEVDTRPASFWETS

SMILES | IC50 [nM]
COc1cc2c(Oc3ccc(NC(=S)NC(=O)Cc4ccccc4)cc3Cl)ccnc2cc1OCCCN1CCOCC1 [Example 300, 1-{3-Chloro-4-[6-methoxy-7-(3-morpholin-4-yl-propoxy)-quinolin-4-yloxy]-phenyl}-3-phenylacetyl-thiourea] | 22.4
COc1cc2c(Oc3ccc(NC(=S)NC(=O)Cc4ccccc4)cc3F)ccnc2cc1OCCCn1ccnc1 [Example 307, 1-{3-Fluoro-4-[7-(3-imidazol-1-yl-propoxy)-6-methoxy-quinolin-4-yloxy]-phenyl}-3-phenylacetyl-thiourea] | 57.4
COc1cc2c(Oc3ccc(NC(=S)NC(=O)Cc4ccccc4Cl)cc3F)ccnc2cc1OCC(O)CN1CCCCC1 (centres unmarked) [Example 316, 1-[2-(2-Chloro-phenyl)-acetyl]-3-{3-fluoro-4-[7-(2-hydroxy-3-piperidin-1-yl-propoxy)-6-methoxy-quinolin-4-yloxy]-phenyl}-thiourea] | 188
COc1cc2c(Oc3ccc(NC(=S)NC(=O)Cc4ccccc4Cl)cc3F)ccnc2cc1OCC(O)CN1CCCC1 (centres unmarked) [Example 317, 1-[2-(2-Chloro-phenyl)-acetyl]-3-{3-fluoro-4-[7-(2-hydroxy-3-pyrrolidin-1-yl-propoxy)-6-methoxy-quinolin-4-yloxy]-phenyl}-thiourea] | 42.2
COc1cc2c(Oc3ccc(NC(=S)NC(=O)Cc4cccc(Cl)c4)cc3F)ccnc2cc1OCC(O)CN1CCCCC1 (centres unmarked) [Example 321, 1-[2-(3-Chloro-phenyl)-acetyl]-3-{3-fluoro-4-[7-(2-hydroxy-3-piperidin-1-yl-propoxy)-6-methoxy-quinolin-4-yloxy]-phenyl}-thiourea] | 125
COc1cc2c(Oc3ccc(NC(=S)NC(=O)Cc4cccc(F)c4)cc3F)ccnc2cc1OCC(O)CN1CCCCC1 (centres unmarked) [Example 324, 1-{3-Fluoro-4-[7-(2-hydroxy-3-piperidin-1-yl-propoxy)-6-methoxy-quinolin-4-yloxy]-phenyl}-3-[2-(3-fluoro-phenyl)-acetyl]-thiourea] | 23.4
COc1cc2c(Oc3ccc(NC(=S)NC(=O)Cc4cccc(F)c4)cc3F)ccnc2cc1OCC(O)CN1CCCC1 (centres unmarked) [Example 325, 1-{3-Fluoro-4-[7-(2-hydroxy-3-pyrrolidin-1-yl-propoxy)-6-methoxy-quinolin-4-yloxy]-phenyl}-3-[2-(3-fluoro-phenyl)-acetyl]-thiourea] | 18.5
COc1cc2c(Oc3ccc(NC(=S)NC(=O)Cc4ccc(Cl)cc4)cc3F)ccnc2cc1OCC(O)CN1CCCCC1 (centres unmarked) [Example 327, 1-[2-(4-Chloro-phenyl)-acetyl]-3-{3-fluoro-4-[7-(2-hydroxy-3-piperidin-1-yl-propoxy)-6-methoxy-quinolin-4-yloxy]-phenyl}-thiourea] | 798
COc1cc2c(Oc3ccc(NC(=S)NC(=O)Cc4ccc(Cl)cc4)cc3F)ccnc2cc1OCC(O)CN1CCCC1 (centres unmarked) [Example 328, 1-[2-(4-Chloro-phenyl)-acetyl]-3-{3-fluoro-4-[7-(2-hydroxy-3-pyrrolidin-1-yl-propoxy)-6-methoxy-quinolin-4-yloxy]-phenyl}-thiourea] | 43.2
COc1cc2c(Oc3ccc(NC(=S)NC(=O)Cc4ccc(F)cc4)cc3F)ccnc2cc1OCC(O)CN1CCCCC1 (centres unmarked) [Example 329, 1-{3-Fluoro-4-[7-(2-hydroxy-3-piperidin-1-yl-propoxy)-6-methoxy-quinolin-4-yloxy]-phenyl}-3-[2-(4-fluoro-phenyl)-acetyl]-thiourea] | 51.8
COc1cc2c(Oc3ccc(NC(=S)NC(=O)Cc4ccc(F)cc4)cc3F)ccnc2cc1OCC(O)CN1CCCC1 (centres unmarked) [Example 330, 1-{3-Fluoro-4-[7-(2-hydroxy-3-pyrrolidin-1-yl-propoxy)-6-methoxy-quinolin-4-yloxy]-phenyl}-3-[2-(4-fluoro-phenyl)-acetyl]-thiourea] | 20.6
COc1cc2c(Oc3ccc(NC(=S)NC(=O)Cc4ccc(C)cc4)cc3F)ccnc2cc1OCC(O)CN1CCOCC1 (centres unmarked) [Example 335] | 23.6
COc1cc2c(Oc3ccc(NC(=O)NC(=O)Cc4ccc(F)cc4)cc3F)ccnc2cc1OCC(O)CN1CCOCC1 (centres unmarked) [Example 336, 1-{3-Fluoro-4-[7-(2-hydroxy-3-morpholin-1-yl-propoxy)-6-methoxy-quinolin-4-yloxy]-phenyl}-3-[2-(4-fluoro-phenyl)-acetyl]-urea] | 32.8

Now from value to compound:

IC50 [nM] | SMILES
22.5 | COc1cc2c(Oc3ccc(NC(=O)NC(=O)Cc4ccccc4)c(F)c3)ccnc2cc1OCCCN1CCOCC1 [Example 287]
23.8 | COc1cc2c(Oc3ccc(NC(=S)NC(=O)Cc4cccc(F)c4)cc3F)ccnc2cc1OCCCN1CCOCC1 [Example 289]
19.5 | CCN(CC)CCCOc1cc2nccc(Oc3ccc(NC(=O)NC(=O)Cc4ccccc4)cc3F)c2cc1OC [Example 291, 1-{4-[7-(3-Diethylamino-propoxy)-6-methoxy-quinolin-4-yloxy]-3-fluoro-phenyl}-3-phenylacetyl-urea]
20.3 | COc1cc2c(Oc3ccc(NC(=O)NC(=O)Cc4ccccc4)cc3F)ccnc2cc1OCCCN1CCCC1 [Example 292, 1-{3-Fluoro-4-[6-methoxy-7-(3-pyrrolidin-1-yl-propoxy)-quinolin-4-yloxy]-phenyl}-3-phenylacetyl-urea]
21.1 | CCN(CC)CCCOc1cc2nccc(Oc3ccc(NC(=O)NC(=O)Cc4ccccc4F)cc3F)c2cc1OC [Example 293, 1-{4-[7-(3-Diethylamino-propoxy)-6-methoxy-quinolin-4-yloxy]-3-fluoro-phenyl}-3-[2-(2-fluoro-phenyl)-acetyl]-urea]
23 | COc1cc2c(Oc3ccc(NC(=O)NC(=O)Cc4ccccc4F)cc3F)ccnc2cc1OCCCN1CCCC1 [Example 294, 1-{3-Fluoro-4-[6-methoxy-7-(3-pyrrolidin-1-yl-propoxy)-quinolin-4-yloxy]-phenyl}-3-[2-(2-fluoro-phenyl)-acetyl]-urea]
24.1 | COc1cc2c(Oc3ccc(NC(=O)NC(=O)Cc4ccccc4F)cc3F)ccnc2cc1OCCCN1CCCCC1 [Example 295, 1-{3-Fluoro-4-[6-methoxy-7-(3-piperidin-1-yl-propoxy)-quinolin-4-yloxy]-phenyl}-3-[2-(2-fluoro-phenyl)-acetyl]-urea]
19.7 | COc1cc2c(Oc3ccc(NC(=O)NC(=O)Cc4ccccc4F)cc3F)ccnc2cc1OCCCN1CCN(C)CC1 [Example 296, 1-(3-Fluoro-4-{6-methoxy-7-[3-(4-methyl-piperazin-1-yl)-propoxy]-quinolin-4-yloxy}-phenyl)-3-[2-(2-fluoro-phenyl)-acetyl]-urea]
89 | COc1cc2c(Oc3ccc(NC(=S)NC(=O)Cc4ccccc4F)cc3Cl)ccnc2cc1OCCCN1CCOCC1 [Example 298, 1-{3-Chloro-4-[6-methoxy-7-(3-morpholin-4-yl-propoxy)-quinolin-4-yloxy]-phenyl}-3-[2-(2-fluoro-phenyl)-acetyl]-thiourea]
65.9 | COc1cc2c(Oc3ccc(NC(=S)NC(=O)Cc4ccc(C)cc4)cc3F)ccnc2cc1OCCCN1CCOCC1 [Example 304, 1-{3-Fluoro-4-[6-methoxy-7-(3-morpholin-4-yl-propoxy)-quinolin-4-yloxy]-phenyl}-3-(2-p-toluyl-acetyl)-thiourea]
21.4 | COc1cc2c(Oc3ccc(NC(=O)NC(=O)Cc4ccccc4)cc3F)ccnc2cc1OCCCn1ccnc1 [Example 305, 1-{3-Fluoro-4-[7-(3-imidazol-1-yl-propoxy)-6-methoxy-quinolin-4-yloxy]-phenyl}-3-phenylacetyl-urea]
33.9 | COc1cc2c(Oc3ccc(NC(=O)NC(=O)Cc4ccccc4F)cc3F)ccnc2cc1OCCCn1ccnc1 [Example 306, 1-{3-Fluoro-4-[7-(3-imidazol-1-yl-propoxy)-6-methoxy-quinolin-4-yloxy]-phenyl}-3-[2-(2-fluoro-phenyl)-acetyl]-urea]
21.4 | COc1cc2c(Oc3ccc(NC(=O)NC(=O)Cc4ccccc4)cc3F)ccnc2cc1OCCCN1CCC(CO)CC1 [Example 308, 1-(3-Fluoro-4-{7-[3-(4-hydroxymethyl-piperidin-1-yl)-propoxy]-6-methoxy-quinolin-4-yloxy}-phenyl)-3-phenylacetyl-urea]
20.1 | COc1cc2c(Oc3ccc(NC(=S)NC(=O)Cc4ccccc4)cc3F)ccnc2cc1OCCCN1CCC(CO)CC1 [Example 309, 1-(3-Fluoro-4-{7-[3-(4-hydroxymethyl-piperidin-1-yl)-propoxy]-6-methoxy-quinolin-4-yloxy}-phenyl)-3-phenylacetyl-thiourea]
21.1 | COc1cc2c(Oc3ccc(NC(=S)NC(=O)Cc4ccc(F)cc4)cc3F)ccnc2cc1OCCCN1CCC(CO)CC1 [Example 310, 1-(3-Fluoro-4-{7-[3-(4-hydroxymethyl-piperidin-1-yl)-propoxy]-6-methoxy-quinolin-4-yloxy}-phenyl)-3-[2-(4-fluoro-phenyl)-acetyl]-thiourea]
18.5 | COc1cc2c(Oc3ccc(NC(=O)NC(=O)Cc4ccccc4)c(F)c3)ccnc2cc1OCCCN1CCC(CO)CC1 [Example 311, 1-(2-Fluoro-4-{7-[3-(4-hydroxymethyl-piperidin-1-yl)-propoxy]-6-methoxy-quinolin-4-yloxy}-phenyl)-3-phenyl-acetyl-urea]
28.3 | COc1cc2c(Oc3ccc(NC(=S)NC(=O)Cc4ccccc4F)cc3F)ccnc2cc1OCC(O)CN1CCCCC1 (centres unmarked) [Example 318, 1-(3-Fluoro-4-[7-(2-hydroxy-3-piperidin-1-yl-propoxy)-6-methoxy-quinolin-4-yloxy]-phenyl)-3-[2-(2-fluoro-phenyl)-acetyl]-thiourea]
127 | COc1cc2c(Oc3ccc(NC(=S)NC(=O)Cc4ccccc4F)cc3F)ccnc2cc1OCC(O)CN1CCCC1 (centres unmarked) [Example 319, 1-{3-Fluoro-4-[7-(2-hydroxy-3-pyrrolidin-1-yl-propoxy)-6-methoxy-quinolin-4-yloxy]-phenyl}-3-[2-(2-fluoro-phenyl)-acetyl]-thiourea]
22 | COc1cc2c(Oc3ccc(NC(=O)NC(=O)Cc4ccccc4)cc3F)ccnc2cc1OCC(O)CN1CCOCC1 (centres unmarked) [Example 337, 1-{3-Fluoro-4-[7-(2-hydroxy-3-morpholin-1-yl-propoxy)-6-methoxy-quinolin-4-yloxy]-phenyl}-3-(2-phenyl-acetyl)-urea]
